pEC50: −log10 of the molar value.
What was measured:
Format in all cases: cell-based
HBV [1] = assay: Anti-HBV activity in HepG2.117 inducible HBV producing cell line (Tet-off), intracellular HBV DNA by realtime PCR; settings: Hepatitis B virus, read-out: HepG2 117 EC50
HBV [2] = assay: Anti-HBV activity in HepG2.2.15 stable transfected cell line, HBV DNA from secreted virions by realtime PCR; settings: Hepatitis B virus, read-out: HBV - HepG2.15
[3] = Cytotoxicity in HepG2 cells, Resazurin assay; settings: human, 4 days incubation, Resazurin viability
Protocol: Cytotoxicity of the compounds was also tested using HepG2 cells, incubated for 4 days in the presence of compounds. The viability of the cells was assessed using a Resazurin assay.

[4] = 72 h, HepG2.117 cells, 3 days of treatment, intracellular HBV DNA
[5] = 144 h, HepG2.2.15 cells, 6 days of treatment, HBV DNA from secreted virions

Compound | pEC50 (HBV [1]; [4]) | pEC50 (HBV [2]; [5]) | CC50 at 4 days [3] | pEC50 (HBV [1]; HepG2.117, 72 h) | pEC50 (HBV [2]; HepG2.2.15, 144 h)
O=S(=O)(NC1CCCCC1)c1ccc2[nH]nc(Nc3ccc(F)cc3)c2c1 [Compound 3] | 5.34 | 6.00 | > 25 µM |  | 
O=S(=O)(NC1CCCCC1)c1ccc2onc(Nc3ccc(F)cc3)c2c1 [Compound 4] |  |  | > 25 µM | 5.92 | 6.13
O=S(=O)(NC1CCCC1)c1ccc2[nH]nc(Nc3ccc(F)cc3)c2c1 [Compound 5] | 5.74 | 6.00 | > 25 µM |  | 
Cn1nc(Nc2ccc(F)cc2)c2cc(S(=O)(=O)NC3CCCC3)ccc21 [Compound 6] | 6.09 | 6.31 | > 25 µM |  | 
CC(C)n1nc(Nc2ccc(F)cc2)c2cc(S(=O)(=O)NC3CCCC3)ccc21 [Compound 7] | < 4.60 | < 4.30 | > 25 µM |  | 
O=S(=O)(NC1CCCC1)c1ccc2c(c1)c(Nc1ccc(F)cc1)nn2C1CC1 [Compound 8] | 6.21 | 6.68 | > 25 µM |  | 
CC(=O)n1nc(Nc2ccc(F)cc2)c2cc(S(=O)(=O)NC3CCCC3)ccc21 [Compound 9] | 4.74 | < 4.30 | > 25 µM |  | 
COC(=O)n1nc(Nc2ccc(F)cc2)c2cc(S(=O)(=O)NC3CCCC3)ccc21 [Compound 10] | < 4.60 | 4.33 | > 25 µM |  | 
O=S(=O)(N[C@H]1CCOC1)c1ccc2[nH]nc(Nc3ccc(F)c(F)c3)c2c1 [Compound 11] | 4.91 | 5.48 | > 25 µM |  | 
Cc1cc(Nc2n[nH]c3ccc(S(=O)(=O)N[C@H]4CCOC4)cc23)ccc1F [Compound 12] | < 4.60 | 5.28 | > 25 µM |  | 
CC(C)NS(=O)(=O)c1ccc2[nH]nc(Nc3ccc(F)c(F)c3)c2c1 [Compound 13] | < 4.60 | 5.05 | > 25 µM |  | 
Cc1cc(Nc2nn(C)c3ccc(S(=O)(=O)N[C@H]4CCOC4)cc23)ccc1F [Compound 14] | 5.07 | 5.96 | > 25 µM |  | 
CC(C)NS(=O)(=O)c1ccc2c(c1)c(Nc1ccc(F)c(C(F)F)c1)nn2C [Compound 15] | 5.55 | 6.36 | > 25 µM |  | 
Cn1nc(Nc2ccc(F)c(C(F)F)c2)c2cc(S(=O)(=O)N[C@H]3CCOC3)ccc21 [Compound 16] | 5.35 | 5.89 | > 25 µM |  | 
CC(C)NS(=O)(=O)c1ccc2cnc(Nc3ccc(F)c(C(F)F)c3)n2c1 [Compound 17] | 4.85 | 6.25 | > 25 µM |  | 
Cc1cc(Nc2ncc3ccc(S(=O)(=O)N[C@H]4CCOC4)cn23)ccc1F [Compound 18] | < 4.60 | 5.77 | > 25 µM |  | 
Cc1cc(Nc2nnc3ccc(S(=O)(=O)NC(C)C)cn23)ccc1F [Compound 19] | 5.47 | 5.92 | > 25 µM |  | 

— US9156839B2, “Fused bicyclic sulfamoyl derivatives and the use thereof as medicaments for the treatment of hepatitis B” (JANSSEN SCIENCES IRELAND UC, priority 2012, dated 2015)
